pIC50: −log10 of the molar value. Structures can show the parent of a compound that is named as a salt.

The target of the assay is T1, Human CCR3 (Homo sapiens, UniProt P51677).
T1 construct: The cloned CCR3 cDNA was constructed with pcDNA3 vector and transfected into a IC562 cell line; expressed in transfected cells
T1 sequence (P51677 1-355): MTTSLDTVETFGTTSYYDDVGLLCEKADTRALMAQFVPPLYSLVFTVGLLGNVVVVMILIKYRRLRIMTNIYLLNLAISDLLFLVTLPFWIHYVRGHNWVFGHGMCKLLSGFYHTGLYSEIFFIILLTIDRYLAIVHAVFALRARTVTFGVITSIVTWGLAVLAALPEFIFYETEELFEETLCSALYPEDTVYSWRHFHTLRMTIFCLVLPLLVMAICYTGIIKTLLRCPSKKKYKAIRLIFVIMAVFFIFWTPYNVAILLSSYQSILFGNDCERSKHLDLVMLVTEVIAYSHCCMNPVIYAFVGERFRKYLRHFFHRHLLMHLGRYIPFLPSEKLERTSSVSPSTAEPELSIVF
Put plainly: Receptor binding assay (RBA), [125I]-eotaxin. Conditions: human CCR3-transformed K562 cells, 0.1 nM [125I]-eotaxin; compounds of about 40 to 90% purity; read-out: Activity grade RBA (IC50 class). As to the method: [Determination of IC50 Values of Compounds in Receptor Binding Assay]
• Human CCR3-transformed K562 cells were used. The cloned CCR3 cDNA was constructed with pcDNA3 vector and transfected into a IC562 cell line. The human CCR3-transformed K562 cells were maintained in RPMI-1640 (Cat.#22400-089, Life Technologies) supplemented with 10% FCS (Cat.#A-1115-L, Hyclone), 55 μM 2-mercaptoethanol (Cat.#21985-023, Life Technologies), 1 mM sodium pyruvate (Cat.#11360-070, Life Technologies), 100 units/ml of penicillin G and 100 μg/ml of streptomycin (Cat.#15140-122, Life Technologies), and 0.4 mg/ml of Geneticin (Cat.#10131-035, Life Technologies)(hereinafter called “culture medium”). Before the receptor binding assay, cells were pretreated with 5 mM sodium butyrate (Cat.#193-01522, Wako)-containing the culture medium (2×10^5 cells/ml) for 20-24 hours to increase the expression of CCR3. (2) Receptor Binding Assay (RBA) • Butyrate-pretreated cells, suspended in binding buffer (25 mM HEPES pH 7.6, 1 mM CaCl2, 5 mM MgCl2, 0.5% BSA, 0.1% NaN3) at a cell density of 2×10^6 cells/ml, were added into 60 μl/well in the 96-well round bottom polypropylene plate (Cat.#3365, Costar). Compounds, diluted with the binding buffer (4-times higher concentration of the final concentration), were added into 30 μl/well in the polypropylene plate. [^125I]-labeled human eotaxin (Cat.#IM290, Amersham Pharmacia Biotech), diluted with the binding buffer at the concentration of 0.4 nM (final concentration; 0.1 nM), was added into 30 μl/well in the polypropylene plate. Total 120 μl/well of binding reaction mixture (60 μl/well of cell suspension, 30 μl/well of compound solution, and 30 μl/well of [^125I]-labeled eotaxin) were incubated in the polypropylene plate for 1 hour at room temperature after the incubation, 100 μl/well of the reaction mixture was transferred to a filtration plate (Cat.#MAFB-N0B, Millipore), and washed with the washing buffer (25 mM HEPES pH 7.6, 1 mM CaCl2, 5 mM MgCl2, 0.5% BSA, 0.1% NaN3, 0.5 M NaCl) twice. The 96-well filtration plate was pretreated with 100 μl/well of 0.5% polyethylenimine (Cat.#P-3143, Sigma) for 2-4 hours at room temperature and washed with the washing buffer twice before use. The non-specific binding was determined by parallel incubation in the presence of 500 nM of non-labeled eotaxin (Cat.#23209, Genzyme Techne). The radioactivities remained on the filter were measured by liquid scintillation counter (TopCount™, Packard) after an addition of 45 μl/well of scintillant (Microscint20, Cat.#6013621, Packard). The inhibition percent at each concentration of compound was calculated, and IC50 values were determined from the inhibition curve. [Determination of IC50 Values of Compounds in Calcium Mobilization Assay] (IC50 Ca2+) (1) Cell • Human CCR3-transformed K562 cells were used. The human CCR3-transformed K562 cells were maintained in RPMI-1640 supplemented with 10% FCS, 55 μM 2-mercaptoethanol (Cat.#21985-023, Life Technologies), 1 mM sodium pyruvate, 100 units/ml of penicillin G and 100 μg/ml of streptomycin and 0.4 mg/ml of Geneticin. Before the calcium mobilization assay, cells were pretreated with 5 mM sodium butyrate-containing the culture medium (2×10^5 cells/ml) for 20-24 hours to increase the expression of CCR3. (2) Calcium Mobilization Assay • Butyrate-pretreated cells were loaded with Fluo-3AM (Cat.#F-1242, Molecular Probes) in loading buffer (Hanks' solution Cat.#05906 Nissui, 20 mM HEPES pH 7.6, 0.1% BSA, 1 mM probenecid Cat.#P-8761 Sigma, 1 μM Fluo-3AM, 0.01% pluronic F-127 Cat.#P-6866 Molecular Probes) at a cell density of 1×10^7 cells/ml. Then, cells were washed with calcium assay buffer (Hanks' solution Cat.#05906 Nissui, 20 mM HEPES pH 7.6, 0.1% BSA, 1 mM Probenecid Cat.#P-8761 Sigma). The cell suspension (3.3×10^6 cells/ml) was added into 60 μl/well in the 96-well clear bottom black plate (Cat.#3904, Costar). […]

For orientation: pIC50 means the negative decadic logarithm of the IC50, by convention in mol/L. On to `CC(=O)c1cccc(Oc2ccc([N+](=O)[O-])cc2S(=O)(=O)N2CCNCC2)c1.Cl` [Example 1-31], for which the pIC50 is less than 5.00.

Turning to `Cc1cc(C)cc(Oc2ccc(C#N)cc2S(=O)(=O)N2CCNCC2)c1` [Example 9-1, 4-(3,5-dimethylphenoxy)-3-(1-piperazinylsulfonyl)benzonitrile hydrochloride], the pIC50 is more than 6.00. As for `COc1ccc(Oc2ccc([N+](=O)[O-])cc2S(=O)(=O)N2CCNCC2)cc1` [Example 1-19], the figure is less than 5.00; as for `Cl.O=[N+]([O-])c1ccc(Oc2cc(C(F)(F)F)cc(C(F)(F)F)c2)c(S(=O)(=O)N2CCNCC2)c1` [Example 1-6], more than 6.00; as for `Cl.O=S(=O)(c1cc(Cl)ccc1Oc1cc(Cl)cc(Cl)c1)N1CCNCC1` [Example 1-56], more than 6.00.

`COc1cc(OC)cc(Oc2ccc([N+](=O)[O-])cc2S(=O)(=O)N2CCNCC2)c1.Cl` [Example 1-5]: the negative-log IC50 (pIC50) was less than 5.00. As for `CC(C)(C)c1cccc(Oc2ccc([N+](=O)[O-])cc2S(=O)(=O)N2CCNCC2)c1.Cl` [Example 1-36], the figure is 5.00 to 6.00; as for `Cc1cc(C)cc(Oc2ccc([N+](=O)[O-])cc2S(=O)(=O)N2CCN(CCO)CC2)c1` [Example 1-88], more than 6.00; as for `Cc1cc(C)cc(Oc2ccc(Br)cc2S(=O)(=O)N2CCNCC2)c1` [Example 8-1, 1-{[5-bromo-2-(3,5-dimethylphenoxy)phenyl]sulfonyl}piperazine hydrochloride], more than 6.00. As for `Cc1cc(C)cc(Oc2ccc(Cl)cc2S(=O)(=O)N2CCNCC2)c1` [Example 5-2, 1-{[5-chloro-2-(3,5-dimethylphenoxy)phenyl]sulfonyl}piperazine hydrochloride], the figure is more than 6.00; as for `Cl.O=[N+]([O-])c1ccc(Oc2ccccc2Cl)c(S(=O)(=O)N2CCNCC2)c1` [Example 1-28], 5.00 to 6.00; as for `Cc1cc(C)cc(Oc2ccc(NC(=O)Cc3ccccc3)cc2S(=O)(=O)N2CCNCC2)c1` [Example 7-1, N-[4-(3,5-dimethylphenoxy)-3-(1-piperazinylsulfonyl)phenyl]-2-phenylacetamide], less than 5.00.

Consider `CC(C)c1cccc(Oc2ccc([N+](=O)[O-])cc2S(=O)(=O)N2CCNCC2)c1.Cl` [Example 1-9], for which the pIC50 is more than 6.00. With `O=[N+]([O-])c1ccc(Oc2cc(Br)cc(Br)c2)c(S(=O)(=O)N2CCNCC2)c1` [Example 1-76], the negative logarithm of the IC50 (pIC50) is more than 6.00. `Cc1cc(Oc2ccc([N+](=O)[O-])cc2S(=O)(=O)N2CCNCC2)cc(C)c1Cl` [Example 1-79]: the negative logarithm of the IC50 (pIC50) is more than 6.00. As to `Cc1ccc(C)c(Oc2ccc([N+](=O)[O-])cc2S(=O)(=O)N2CCNCC2)c1.Cl` [Example 1-64], the negative-log IC50 (pIC50) was more than 6.00.

Take `Cc1cc(Oc2ccc([N+](=O)[O-])cc2S(=O)(=O)N2CCNCC2)ccc1Cl.Cl` [Example 1-60]: the pIC50 is 5.00 to 6.00. As for `CC(C)(C)c1cc(Oc2ccc([N+](=O)[O-])cc2S(=O)(=O)N2CCNCC2)cc(C(C)(C)C)c1.Cl` [Example 1-7], the figure is less than 5.00. As to `Cl.O=[N+]([O-])c1ccc(Oc2cccc3ccccc23)c(S(=O)(=O)N2CCNCC2)c1` [Example 1-11], the negative logarithm of the IC50 (pIC50) was 5.00 to 6.00. As to `CCCCc1ccccc1Oc1ccc([N+](=O)[O-])cc1S(=O)(=O)N1CCNCC1.Cl` [Example 1-40], the pIC50 is more than 6.00. As for `O=[N+]([O-])c1ccc(Oc2ccccc2)c(S(=O)(=O)N2CCNCC2)c1` [Example 1-18], the figure is 5.00 to 6.00; as for `Cc1ccc(Oc2ccc([N+](=O)[O-])cc2S(=O)(=O)N2CCNCC2)cc1C.Cl` [Example 1-63], 5.00 to 6.00; as for `CN(C)c1cccc(Oc2ccc([N+](=O)[O-])cc2S(=O)(=O)N2CCNCC2)c1.Cl` [Example 1-32], less than 5.00. As for `Cc1cc(C)cc(Oc2ccc([N+](=O)[O-])cc2S(=O)(=O)N2CC(C)NCC2C)c1.Cl` (stereo not drawn) [Example 1-54], the pIC50 was more than 6.00. As for `Cl.O=[N+]([O-])c1cccc(Oc2ccc([N+](=O)[O-])cc2S(=O)(=O)N2CCNCC2)c1` [Example 1-38], the figure is 5.00 to 6.00; as for `Cc1cc(Oc2ccc([N+](=O)[O-])cc2S(=O)(=O)N2CCNCC2)cc(C(C)C)c1.Cl` [Example 1-8], more than 6.00. Turning to `Cc1cc(C)cc(Oc2ccc(C(=O)N3CCNCC3)cc2S(=O)(=O)N2CCNCC2)c1.Cl.Cl` [Example 1-42], the pIC50 is less than 5.00. As for `Cl.O=[N+]([O-])c1ccc(Oc2cc(Cl)cc(Cl)c2)c(S(=O)(=O)N2CCNCC2)c1` [Example 1-33], the figure is more than 6.00; as for `COc1cc(Oc2cc(C)cc(C)c2)c(S(=O)(=O)N2CCNCC2)cc1[N+](=O)[O-].Cl` [Example 1-47], 5.00 to 6.00; as for `COc1ccc(Oc2cc(C)cc(C)c2)c(S(=O)(=O)N2CCNCC2)c1` [Example 6-2, hydrochloride], more than 6.00.

For the molecule `Cc1cc(C)cc(Oc2cc(C(F)(F)F)ccc2S(=O)(=O)N2CCNCC2)c1.Cl` [Example 1-46], the pIC50 was less than 5.00.

For `Cl.N[C@H]1CCN(S(=O)(=O)c2cc([N+](=O)[O-])ccc2Oc2cc(Cl)cc(Cl)c2)C1` [Example 1-100], the pIC50 was more than 6.00. With `O=[N+]([O-])c1ccc(Oc2cc(Cl)cc(Cl)c2)c(S(=O)(=O)N2CC3CCCNC3C2)c1` (stereo not drawn) [Example 1-48], the pIC50 is more than 6.00. On to `COc1ccccc1Oc1ccc([N+](=O)[O-])cc1S(=O)(=O)N1CCNCC1.Cl` [Example 1-27], for which the negative logarithm of the IC50 (pIC50) was more than 6.00. The result for `Cc1cc(C)cc(Oc2ccc([N+](=O)[O-])cc2S(=O)(=O)N2CCCNCC2)c1` [Example 1-90] reads more than 6.00; that for `CN(CCN1CCCCC1)S(=O)(=O)c1cc([N+](=O)[O-])ccc1Sc1cc(Cl)cc(Cl)c1` [Example 26-1, 2-[(3,5-dichlorophenyl)sulfanyl]-N-methyl-5-nitro-N-[2-(1-piperidinyl)ethyl]benzenesulfonamide], more than 6.00; that for `COc1cc(C)cc(Oc2ccc([N+](=O)[O-])cc2S(=O)(=O)N2CCNCC2)c1.Cl` [Example 1-37], more than 6.00. Take `N#Cc1ccc(Nc2cc(Cl)cc(Cl)c2)c(S(=O)(=O)N2CCNCC2)c1` [Example 20-1, 4-[(3,5-dichlorophenyl)amino]-3-(1-piperazinylsulfonyl)benzonitrile hydrochloride]: the negative-log IC50 (pIC50) is more than 6.00. `CC(C)(C)c1ccc(Oc2ccc([N+](=O)[O-])cc2S(=O)(=O)N2CCNCC2)cc1` [Example 1-21]: the pIC50 is less than 5.00.

These data come from patent US8242118B2, “Arylsulfonamide derivatives for use as CCR3 antagonists in the treatment of inflammatory and immunological disorders” (Axikin Pharmaceuticals Inc., priority 2001, dated 2012).
